# According to patent US20240374487A1, “ANTI-AGING AGENT, COSMETIC PRODUCT, WET TOWEL, AND HYGIENE PRODUCT” (VB JAPAN TECHNOLOGY CO., LTD., priority 2021, published 2024):
# What was measured:
# [1] = system: AGE receptor (FEEL-1, FEEL-2, CD-36, AGE-R1, AGE-R2, AGE-R3 and RAGE); test: mRNA levels of AGE receptors by qRT-PCR in normal human dermal fibroblasts; format: cell-based; conditions: VB alone, no AGE, 37° C. 4 hours, compared with untreated group
# Experimental: (§1) Normal human dermal fibroblasts (NHDF), juvenile foreskin (C-12300, PromoCell) were cultured in a dedicated medium, Fibroblast Growth Medium (C-23010, PromoCell) at 37° C. in a 5% CO2 incubator.
# (§2) First, as a co-existence group of VB and AGE, normal human dermal fibroblasts were treated with AGE (100 μg/mL), and the above VB2 (concentration after dilution: 115 μg/ml) and VB3 (concentration after dilution: 1000 μg/mL) diluted to an accurate 1/1000 amount were each added and retained at 37° C. for 4 hours. […]
# (§3) Then, total RNA was extracted from the cells using Trizol reagent (Ambion), and mRNA levels of AGE receptor (FEEL-1, FEEL-2, CD-36, AGE-R1, AGE-R2, AGE-R3 and RAGE) and heat shock protein (Hsp104, gp96, Hsp90, Hsp70, Hsp60, and Hsp32) were measured by qRT-PCR (one-step quantitative reverse transcription-polymerase chain reaction) method. […]
# (§4) The qRT-PCR method used for the measurement of AGE receptor, heat shock protein, aquaporin, hyaluronic acid, and Elastin will be described. In the qRT-PCR method, 500 ng of the obtained total RNA was used as a template for PCR, and one step RT-PCR capable of performing CDNA synthesis by a reverse transcription reaction (Reverse Transcriptase; RT reaction) and quantitative PCR in one test tube was performed using Luna Universal One-Step qRT-PCR Kit. […]
# FEEL-1 = FEEL-1 mRNA level by qRT-PCR in AGE-treated fibroblasts; format: cell-based, human; conditions: co-existence with AGE 100 μg/mL, 4 hours, compared with AGE single stimulation group
# Experimental: as §1, §2, §3, §4
# FEEL-2 = FEEL-2 mRNA level by qRT-PCR in AGE-treated fibroblasts; format: cell-based, human; conditions: co-existence with AGE 100 μg/mL, 4 hours, compared with AGE single stimulation group
# Experimental: as §1, §2, §3, §4
# RAGE = RAGE mRNA level by qRT-PCR in AGE-treated fibroblasts; format: cell-based, human; conditions: co-existence with AGE 100 μg/mL, 4 hours, compared with AGE single stimulation group
# Experimental: as §1, §2, §3, §4
# [2] = system: heat shock protein (Hsp104, gp96, Hsp90, Hsp70, Hsp60, and Hsp32); test: mRNA levels of heat shock proteins by qRT-PCR in fibroblasts; format: cell-based, human; conditions: 4 hours
# Experimental: as §1
# First, as a co-existence group of VB and AGE, normal human dermal fibroblasts were treated with AGE (100 μg/mL), and the above VB2 (concentration after dilution: 115 μg/ml) and VB3 (concentration after dilution: 1000 μg/mL) diluted to an accurate 1/1000 amount were each added and retained at 37° C. for 4 hours.
# In addition, as the VB single stimulation group, normal human dermal fibroblasts were not treated with AGE, and the above VB2 and VB3 diluted to an accurate 1/1000 amount were each added and held at 37° C. for 4 hours. Furthermore, as the AGE single stimulation group, normal human dermal fibroblasts were treated with AGE and kept at 37° C. for 4 hours without addition of VB2 or VB3. In addition, as an untreated group, normal human dermal fibroblasts were not treated with AGE, and were kept at 37° C. for 4 hours without adding VB2 or VB3.
# Then, total RNA was extracted from the cells using Trizol reagent (Ambion), and mRNA levels of AGE receptor (FEEL-1, FEEL-2, CD-36, AGE-R1, AGE-R2, AGE-R3 and RAGE) and heat shock protein (Hsp104, gp96, Hsp90, Hsp70, Hsp60, and Hsp32) were measured by qRT-PCR (one-step quantitative reverse transcription-polymerase chain reaction) method.
# The measurement results for AGE receptor are shown in FIG. 1, and the measurement results for heat shock protein are shown in FIG. 2. In FIG. 1 and FIG. 2, for the co-existence group of AGE and VB, samples to which VB2 and VB3 were added are indicated as VB2(+)AGE and VB3(+)AGE, respectively, and these values were shown in comparison with the AGE single stimulation group. In addition, for the VB single stimulation group, samples to which VB2 and VB3 were added were indicated as VB2 alone and VB3 alone, respectively, and these values were shown in comparison with the untreated group.
# (§5) The qRT-PCR method used for the measurement of AGE receptor, heat shock protein, aquaporin, hyaluronic acid, and Elastin will be described. In the qRT-PCR method, 500 ng of the obtained total RNA was used as a template for PCR, and one step RT-PCR capable of performing CDNA synthesis by a reverse transcription reaction (Reverse Transcriptase; RT reaction) and quantitative PCR in one test tube was performed using Luna Universal One-Step qRT-PCR Kit.
# As a PCR device, Thermal Cycler Dice Real Time System II manufactured by Takara was used. […]
# (§6) The reaction was performed under the conditions of 1 cycle of 30 seconds at 95° C., and further cycles of 5 seconds at 95° C. and 30 seconds at 60° C. for 50 cycles. A variation in mRNA expression by 4 times or more (2 cycles as PCR reaction) was determined as a significant difference.
# intracellular ROS [3] = test: Intracellular ROS against AGE (DCF-DA fluorescence); format: cell-based, human; conditions: AGE 100 μg/mL, 4 hours, FIG. 3
# Experimental: as §1
# Normal human dermal fibroblasts were treated with AGE (100 μg/mL) and maintained at 37° C. for 4 hours with the addition of VB2 and VB3, respectively. Here, VB2 and VB3 were added at concentrations of 1 μg/mL, 10 μg/mL, 100 μg/mL, and 300 μg/mL, respectively. In FIGS. 3 and 4, which are graphs showing the results, those to which VB2was added were denoted as “VB2-AGE”, and those to which VB3 was added were denoted as “VB3-AGE”.
# As Control, measurement was also performed on normal human dermal fibroblasts which were not treated with AGE and were held at 37° C. for 4 hours without addition of VB2 or VB3, and as an AGE single stimulation group, measurement was also performed on normal human dermal fibroblasts which were treated with AGE (100 μg/mL) and were held at 37° C. for 4 hours without addition of VB2 or VB3 (in FIGS. 3 and 4, it is denoted as “AGE”.).
# Measurement of intracellular ROS was performed using fluorescence using dichlorofluorescin diacetate (DCF-DA; Invitrogen, Carlsbad, CA, USA). […] The intracellular ROS level was measured at an excitation wavelength of 525 nm using fluorescence intensity using the micro plate reader (SYNERGY/HT, BioTek, Japan).
# [4] = system: normal human dermal fibroblasts; test: Cell viability under hydrogen peroxide oxidative stress (Cell counting-8 kit); format: cell-based; conditions: for cell viability, trend: 1-300 μg/mL
# Experimental: as §1
# (§7) Normal human dermal fibroblasts were cultured for 2 hours in a culture solution to which 0.2 mM hydrogen peroxide was added, then washed off with PBS, and replaced with a normal medium to continue the cultivation. VB2 and VB3 were each added at any timing before or after hydrogen peroxide was added, and co-cultured for 4 hours. Thereafter, the cells or the culture solution were recovered.
# In FIG. 5 which is a graph showing the results, a sample obtained by adding VB2 or VB3 after adding hydrogen peroxide was denoted as “H2O2-VB2” and “H2O2-VB3”, respectively, and a sample obtained by adding hydrogen peroxide after adding VB2 or VB3 was denoted as “VB2-H2O2” and “VB3-H2O2”, respectively.
# Here, VB2 and VB3 were added at concentrations of 1 μg/mL, 10 μg/mL, 100 μg/mL, and 300 μg/mL, respectively.
# The normal human dermal fibroblasts to which neither hydrogen peroxide nor VB2 nor VB3 was added were treated in the same manner as described above, and measured as Control. In addition, a sample to which VB2 or VB3 was not added (in FIG. 5, it is denoted as “H2O2”) was also treated in the same manner as described above, and measurement was performed.
# The number of surviving cells in normal human dermal fibroblasts was measured using Cell counting −8 kit (DOJINDO: , Japan).
# intracellular ROS [5] = test: Intracellular ROS production against hydrogen peroxide (DCF-DA); format: cell-based, human; conditions: added before and after 0.2 mM hydrogen peroxide, 1-300 μg/mL
# Experimental: Measurement of intracellular ROS was performed using fluorescence using dichlorofluorescin diacetate (DCF-DA; Invitrogen, Carlsbad, CA, USA). Specifically, cells were washed with PBS, and then incubated with 10 μM DCF-DA at 37° C. for 20 minutes. The intracellular ROS level was measured at an excitation wavelength of 525 nm using fluorescence intensity using the micro plate reader (SYNERGY/HT, BioTek, Japan).
# as §7
# According to the procedure described in “Measurement of Cell Viability” above, normal human dermal fibroblasts were treated and cultured (co-culture), and cells or the culture solution was recovered. The concentrations of VB2 and VB3 used and the notation of the samples in FIGS. 6 and 7, which are graphs showing the results, are also similar to the above “Measurement of Cell Viability”.
# The measurement of intracellular ROS and the measurement of superoxide (SOD) were performed by the same methods as the methods described in “Measurement of Intracellular Reactive Oxygen (ROS) Production and Superoxide (SOD) against AGE” above, respectively.
# FIGS. 6 and 7 show the results of each sample when Control is 100%.
# SOD = SOD amount against hydrogen peroxide (SOD Assay Kit); format: cell-based, human; conditions: added before and after 0.2 mM hydrogen peroxide, 1-300 μg/mL (H2O2 only 56% of Control)
# Experimental: Superoxide (SOD) was measured using SOD Assay Kit (Cayman Chemical, Ann arbor, MI, USA). Cells that had been subjected to various treatments were incubated for 24 hours, and then a Lysis buffer was added, homogenized, and centrifuged. Then, 10 μL of each sample was mixed with 200 μL of xanthine oxidase at room temperature. After 30 minutes, the absorbance at 450 nm was measured.
# as §7
# According to the procedure described in “Measurement of Cell Viability” above, normal human dermal fibroblasts were treated and cultured (co-culture), and cells or the culture solution was recovered. The concentrations of VB2 and VB3 used and the notation of the samples in FIGS. 6 and 7, which are graphs showing the results, are also similar to the above “Measurement of Cell Viability”. […]
# AQP-1 = AQP-1 mRNA level under oxidative stress (qRT-PCR); format: cell-based, human
# Experimental: as §7
# (§8) According to the procedure described in “Measurement of Cell Viability” above, normal human dermal fibroblasts were treated and cultured (co-culture), and cells or the culture solution was recovered. The notation of the sample in FIGS. 8 and 9, which are graphs showing the results, is also the same as in the “Measurement of Cell Viability” described above.
# (§9) The measurement of aquaporin was performed for AQP-1 and AQP-3 by a qRT-PCR method, and the measurement result was obtained by a ΔΔCt method. […] The qRT-PCR method is s specifically described in “qRT-PCR method” described later.
# as §5
# (§10) As a PCR device, Thermal Cycler Dice Real Time System II manufactured by Takara was used. As one reaction system, 10 μL of Luna Universal One-Step Reaction Mix (2×), 1 μL of Luna WarmStart RT Enzyme Mix (20×), 0.8 μL of Forward primer (10 μM), 0.8 μL of Reverse primer, and Total RNA as a template for the PCR were used, and the total amount was adjusted to 20 μL in Nuclease-free Water.
# as §6
# AQP-3 = AQP-3 mRNA level under oxidative stress (qRT-PCR); format: cell-based, human
# Experimental: as §7, §8, §9, §5, §10, §6
# hyaluronic acid = test: Hyaluronic acid secreted into culture supernatant (ELISA); format: cell-based, human
# Experimental: as §7
# (§11) According to the procedure described in “Measurement of Cell Viability” above, normal human dermal fibroblasts were treated and cultured (co-culture), and cells or the culture solution was recovered. The concentrations of VB2 and VB3 used and the notation of the samples in FIGS. 10 and 11, which are graphs showing the results, are also similar to the above “Measurement of Cell Viability”.
# (§12) The production amounts of hyaluronic acid and Elastin were measured by an ELISA method. The results of measuring the amount of hyaluronic acid secreted from normal human dermal fibroblasts into the culture supernatant by the ELISA method are shown in FIG. 10, and the results of measuring the amount of intracellular Elastin production by the ELISA method are shown in FIG. 11.
# Elastin = test: Intracellular Elastin production (ELISA); format: cell-based, human
# Experimental: as §7, §11, §12
# [6] = added before or after 0.2 mM hydrogen peroxide
# [7] = added in advance before oxidative stress, compared with addition after
# [8] = added in advance before applying oxidative stress
substance,measurement,setting,value
Na9[SbW9O33] [VB3],mRNA expression of AGE receptor,[1],did not affect
same,mRNA level of FEEL-1,FEEL-1,significantly increased
same,mRNA level of FEEL-2,FEEL-2,significantly increased
same,mRNA level of RAGE,RAGE,significantly increased
same,mRNA expression of Hsp,"[2]; VB alone, no AGE, compared with untreated group",did not affect
same,mRNA levels of all Hsps other Hsp 90 among the examined Hsps,"[2]; co-existence with AGE 100 μg/mL, compared with AGE single stimulation group",significantly increased
same,intracellular ROS under AGE stimulation,intracellular ROS [3],suppress the increase in ROS
same,maximum cell viability,"[4]; added after 0.2 mM hydrogen peroxide, 300 μg/mL, % of Control (H2O2 only 59%)",78%
same,"cell viability, trend",[4]; added after 0.2 mM hydrogen peroxide,increased in a concentration-dependent manner
same,"cell viability, trend",[4]; added in advance before 0.2 mM hydrogen peroxide,significant increase in a concentration-dependent manner
same,ROS production,intracellular ROS [5],suppressed in a concentration-dependent manner
same,SOD amount,SOD,tended to be recovered in a concentration-dependent manner
same,mRNA level of AQP-1,AQP-1; [6],increased
same,"AQP-1 mRNA repair ability, addition before vs after oxidative stress",AQP-1; [7],tended to have a stronger repair ability
same,mRNA level of AQP-3,AQP-3; [6],increased
same,"AQP-3 mRNA repair ability, addition before vs after oxidative stress",AQP-3; [7],tended to have a stronger repair ability
same,amount of hyaluronic acid,"hyaluronic acid; 0.2 mM hydrogen peroxide oxidative stress, culture supernatant",tended to be recovered
same,"hyaluronic acid repair ability, addition before vs after oxidative stress",hyaluronic acid; [7],tended to have a stronger repair ability
same,Elastin production amount,Elastin; added after application of oxidative stress (H2O2 only 56% of Control),could not be recovered
same,Elastin production amount,Elastin; [8],significant recovery
same,concentration at which Elastin production amount was significantly higher than Control,Elastin; [8],300 µg/mL
